Consider 3 substances from patent US20260198495A1, “BINARY INSECTICIDE COMPOSITION AND USE THEREOF” (SHENYANG SINOCHEM AGROCHEMICALS R & D CO., LTD., priority 2022, published 2026).

Common to all, as to type: in vivo
The subject of series [1] is 3rd-instar larvae of Pyrausta nubilalis Hubern. In words: Synergism assay (Bliss) of I-72 + abamectin, spinosad, spinetoram, emamectin benzoate, Example 6, Table 6. Conditions: 72 h. On the procedure: Test subject: 3rd-instar larvae of Pyrausta nubilalis Hubern, a sensitive strain reared indoors.
Test conditions: temperature: 24-26° C., humidity: RH 60%, and illumination: L:D=14:10
(§1) Preparation method: the test pesticides were accurately weighed respectively with an electronic analytical balance. After the two technical materials were respectively added into an appropriate amount of solvent and completely dissolved, the stock solution of the required concentration was prepared with water containing 0.1% Tween 80. The stock solutions of the two active ingredients were mixed in a certain ratio to prepare a mixed solution, which was then diluted respectively into a series of pesticide solutions with a certain concentration gradient according to the experimental design dosage.
Experimental method: the artificial diet-pesticide film method was adopted. A standard clean 24-well culture plate was selected. 1 ml of artificial diet was added to each well. After the diet cooled and solidified, a quantitative amount of a pesticide solution was added to the culture plate using a continuous sampler, and then it was air-dried naturally in the shade. The standard test insects were introduced, with 1 insect in each well, a total of 48 insects. The treated test insects were placed in an observation room under certain conditions. The reaction of the test insects was regularly observed, and the number of dead and live insects was investigated 72 h later.
The evaluation method adopted was the Bliss method. This method is applicable to the qualitative screening of insecticidal compositions. According to the concept of independent joint action he proposed, Bliss believes that the theoretical mortality rate P when insecticides are used in combination can be calculated by the following formula: […]
Pm is the mortality rate (%) of the target when the first active ingredient is at a concentration of m; and Pn is the mortality rate (%) of the target when the second active ingredient is at a concentration of n.
If the actual mortality rate of the target after the two active ingredients are mixed at a certain concentration is greater than theoretical mortality rate P, it is determined that the two active ingredients have a synergistic effect when used in combination at the set concentration, and otherwise, they have an antagonistic effect.

In series [2] the test system is 2nd-instar larvae of Chilo suppressalis (Walker). In words: Joint toxicity of I-72 + abamectin, rice stalk spraying, Example 7, Table 7. The note with it: resistant 2nd-instar larvae, 72 h, A = compound I-72, B = abamectin. On the procedure: Test target: 2nd-instar larvae of Chilo suppressalis (Walker). The insect source was collected from Nanchang, Jiangxi Province, and it is the 11th generation continuously cultured indoors, with a relatively high resistance level to amide pesticides such as chlorantraniliprole.
Test conditions: temperature: 25-27° C., humidity: RH 60%, and illumination: L:D=14:10
as §1
Experimental method: the spraying method was adopted. […] The corrected mortality rate was calculated using the Abbott's formula, and the DPS data processing software was used for statistical analysis to calculate the toxicities (LC50 values) of the single test pesticides and the mixtures under the test ratios. […]

Series [3] has as its system adult Bemisia tabaci (Gennadius). In words: Joint toxicity of I-72 + abamectin, seedling spraying, Example 13, Table 13. The note with it: adults, kidney bean seedling spraying, 72 h; A = compound I-72, B = abamectin. From the text: (§2) Test subject: adult Bemisia tabaci (Gennadius), a sensitive strain reared indoors.
(§3) Experimental method: the spraying method was adopted. The kidney bean seedlings cultivated in the greenhouse were selected and evenly sprayed with the pesticide solution in the order from low dosage to high dosage according to the experimental design. After natural air-drying in the shade, a self-made glass cover was put on, and the test insects were introduced, with 20-30 insects for each treatment and 3 replicates. In addition, a blank control was set up. The number of dead and live insects was investigated 72 hours later. The corrected mortality rate was calculated using the Abbott's formula, and the DPS data processing software was used for statistical analysis to calculate the toxicities (LC50 values) of the single test pesticides and the mixtures under the test ratios.
(§4) The test conditions, the preparation of the pesticide solution and the evaluation method were the same as those in Example 1.
The test subject, the test method, the test conditions, the preparation of the pesticide solution and the evaluation method were the same as those in Example 12.

For series [4], the system named is 3rd-instar larvae of Spodoptera exigua Hübner. Nature of the series: Joint toxicity of I-72 + emamectin benzoate, leaf-disk dipping, Example 9, Table 9. The note with it: cabbage leaf-disk dipping, 72 h, A = compound I-72, B = emamectin benzoate.
Source text: Test subject: 3rd-instar larvae of Spodoptera exigua Hübner, a sensitive strain reared indoors.
Experimental method: the dipping method was adopted. The cabbage leaves cultivated in the greenhouse were taken, the surface wax layer was removed, and leaf disks with a diameter of 3 cm were made with a puncher. The leaf disks were dipped in the prepared pesticide solution for 10 s, and then put into a 9-cm-diameter Petri dish lined with filter paper. After natural air-drying in the shade, the standard test insects were introduced, with 10 insects placed in each dish and 3 replicates performed. The treated test insects were placed in an observation room under certain conditions. The reaction of the test insects was regularly observed, and the number of dead and live insects was investigated 72 h later.
as §4

Series [5] relates to adult Bemisia tabaci (Gennadius). In words: Joint toxicity of I-72 + emamectin benzoate, seedling spraying, Example 12, Table 12. The note with it: adults, kidney bean seedling spraying, 72 h; A = compound I-72, B = emamectin benzoate.
Source text: as §2, §3, §4

The test system of series [6] is 2nd-instar larvae of Chilo suppressalis (Walker). In words: whole plant or invertebrate. The note with it: resistant 2nd-instar larvae, rice stalk spraying, 72 h; A = compound I-72, B = spinetoram. On the procedure:
In addition, a blank control was set up. The number of dead and live insects was investigated 72 hours later.

Series [7] concerns 2nd-instar nymphs of Frankliniella occidentalis Pergande. Nature of the series: Joint toxicity of I-72 + spinetoram, leaf spraying, Example 11, Table 11. Conditions: kidney bean leaf spraying, 48 h, A = compound I-72, B = spinetoram.
Source text: Test subject: 2nd-instar nymphs of Frankliniella occidentalis Pergande, a sensitive strain reared indoors.
Experimental method: the spraying method was adopted. The kidney bean leaves cultivated in the greenhouse were selected, and the petioles were wrapped with moist degreased cotton and sealing film. They were evenly sprayed with the pesticide solution in the order from low dosage to high dosage according to the experimental design, placed in a 6-cm-diameter Petri dish with filter paper. After natural air-drying in the shade, the test insects were introduced, with 20 insects for each treatment and 3 replicates. In addition, a blank control was set up. The number of dead and live insects was investigated 48 hours later. The corrected mortality rate was calculated using the Abbott's formula, and the DPS data processing software was used for statistical analysis to calculate the toxicities (LC50 values) of the single test pesticides and the mixtures under the test ratios.
as §4

As to abamectin, the “Mortality rate (%)” value in series [1] (single agent 0.1 mg/L) came to 10.42%; in series [1] (single agent 1 mg/L), 58.33%; in series [1] (single agent 2 mg/L) it was 75.00%; in series [1] (single agent 5 mg/L) it was 85.42%. In addition, the median lethal concentration (LC50) in series [2] came to 8.0355 µg/mL; in series [3], 2.2263 µg/mL.
As for emamectin benzoate, the “Mortality rate (%)” value in series [1] (single agent 0.05 mg/L) amounted to 41.67%; in series [1] (single agent 0.1 mg/L), 50.00%; in series [1] (single agent 0.2 mg/L) it was 79.17%; in series [1] (single agent 0.5 mg/L), 87.50%. The 50% lethal concentration (LC50) in series [4] was 0.0878 µg/mL; in series [5], 1.1995 µg/mL.
spinetoram: the “Mortality rate (%)” value in series [1] (single agent 0.1 mg/L) is on record as 8.33%; in series [1] (single agent 1 mg/L), 56.25%; in series [1] (single agent 2 mg/L), 70.83%; in series [1] (single agent 5 mg/L) it was 81.25%. Also, the median lethal concentration (LC50) in series [6] stood at 9.4220 µg/mL; in series [7], 0.7822 µg/mL.
